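Test compounds were applied to cells in 96-well plates for 48 hours at 5 doses. TGI: total growth inhibition.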
How the values were obtained:
Assay in all cases: NCI-60 cell line screen, 48 h
OVCAR-3 ovarian = tested on: OVCAR-3 ovarian
NCI-H460 lung = tested on: NCI-H460 lung
UACC-62 melanoma = tested on: UACC-62 melanoma
SNB-19 CNS = tested on: SNB-19 CNS
LOX IMVI melanoma = tested on: LOX IMVI melanoma
MOLT-4 leukemia = tested on: MOLT-4 leukemia
NCI-H23 lung = tested on: NCI-H23 lung
NCI-H226 lung = tested on: NCI-H226 lung
KM20L2 colon = tested on: KM20L2 colon
HS 578T breast = tested on: HS 578T breast

## O=C(NO)c1ccc([N+](=O)[O-])cc1
OVCAR-3 ovarian
  TGI: > 100 µM
NCI-H460 lung
  TGI: > 100 µM
UACC-62 melanoma
  TGI: 50.5 µM
SNB-19 CNS
  TGI: > 100 µM
LOX IMVI melanoma
  TGI: > 100 µM
MOLT-4 leukemia
  TGI: > 100 µM
NCI-H23 lung
  TGI: > 100 µM
NCI-H226 lung
  TGI: > 100 µM
KM20L2 colon
  TGI: > 100 µM

## COc1ccc(/C=C(\Cl)c2ccc(OC)c(OC)c2)cc1OC
OVCAR-3 ovarian
  TGI: > 100 µM
NCI-H460 lung
  TGI: > 100 µM
UACC-62 melanoma
  TGI: > 100 µM
SNB-19 CNS
  TGI: > 100 µM
LOX IMVI melanoma
  TGI: > 100 µM
MOLT-4 leukemia
  TGI: > 100 µM
NCI-H23 lung
  TGI: > 100 µM
HS 578T breast
  TGI: > 100 µM
NCI-H226 lung
  TGI: > 100 µM
KM20L2 colon
  TGI: > 100 µM

## CCOC(=O)CSc1ccnc(=O)[nH]1
OVCAR-3 ovarian
  TGI: > 100 µM
NCI-H460 lung
  TGI: > 100 µM
UACC-62 melanoma
  TGI: > 100 µM
SNB-19 CNS
  TGI: > 100 µM
LOX IMVI melanoma
  TGI: > 100 µM
MOLT-4 leukemia
  TGI: > 100 µM
KM20L2 colon
  TGI: > 100 µM

## CCOC(C[C@H](O)[C@H]1COC(=S)S1)OCC
OVCAR-3 ovarian
  TGI: > 100 µM
NCI-H460 lung
  TGI: > 100 µM
UACC-62 melanoma
  TGI: > 100 µM
SNB-19 CNS
  TGI: > 100 µM
LOX IMVI melanoma
  TGI: > 100 µM
NCI-H23 lung
  TGI: > 100 µM
NCI-H226 lung
  TGI: > 100 µM
KM20L2 colon
  TGI: > 100 µM

## CN(C)c1ccc(/C=C/C=C\C2=CC(=C\C=C/C=C3C=CC(=[N+](C)C)C=C3)/Sc3ccccc32)cc1
OVCAR-3 ovarian
  TGI: > 100 µM
NCI-H460 lung
  TGI: > 100 µM
UACC-62 melanoma
  TGI: > 100 µM
SNB-19 CNS
  TGI: > 100 µM
LOX IMVI melanoma
  TGI: 64.1 µM
MOLT-4 leukemia
  TGI: > 100 µM
NCI-H226 lung
  TGI: > 100 µM
KM20L2 colon
  TGI: > 100 µM

## CC#COP(=O)(OCC)OCC
OVCAR-3 ovarian
  TGI: > 100 µM
NCI-H460 lung
  TGI: > 100 µM
UACC-62 melanoma
  TGI: > 100 µM
SNB-19 CNS
  TGI: > 100 µM
LOX IMVI melanoma
  TGI: > 100 µM
MOLT-4 leukemia
  TGI: > 100 µM
NCI-H23 lung
  TGI: > 100 µM
NCI-H226 lung
  TGI: > 100 µM
KM20L2 colon
  TGI: > 100 µM

## CCOC(=O)/C(C)=C\[C@@]1(C)O[C@@H](C)[C@@](C)(OC(C)=O)[C@@H]1OC(C)=O
OVCAR-3 ovarian
  TGI: > 100 µM
NCI-H460 lung
  TGI: > 100 µM
UACC-62 melanoma
  TGI: > 100 µM
SNB-19 CNS
  TGI: > 100 µM
LOX IMVI melanoma
  TGI: > 100 µM
MOLT-4 leukemia
  TGI: > 100 µM
NCI-H23 lung
  TGI: 77.1 µM
HS 578T breast
  TGI: > 100 µM
NCI-H226 lung
  TGI: > 100 µM

## CCCCCC(=O)Nc1n[nH]nc1C(N)=O
OVCAR-3 ovarian
  TGI: > 100 µM
NCI-H460 lung
  TGI: > 100 µM
UACC-62 melanoma
  TGI: > 100 µM
SNB-19 CNS
  TGI: > 100 µM
LOX IMVI melanoma
  TGI: > 100 µM
MOLT-4 leukemia
  TGI: > 100 µM
NCI-H23 lung
  TGI: > 100 µM
HS 578T breast
  TGI: > 100 µM
NCI-H226 lung
  TGI: > 100 µM

## CCOC(=O)/C(O)=C(/C=N\C(=S)Nc1ccccc1Cl)C(=O)OCC
OVCAR-3 ovarian
  TGI: > 100 µM
NCI-H460 lung
  TGI: > 100 µM
UACC-62 melanoma
  TGI: > 100 µM
SNB-19 CNS
  TGI: > 100 µM
LOX IMVI melanoma
  TGI: > 100 µM
MOLT-4 leukemia
  TGI: > 100 µM
NCI-H23 lung
  TGI: > 100 µM
HS 578T breast
  TGI: > 100 µM
NCI-H226 lung
  TGI: > 100 µM

## Fc1cc(C2=C[C@H](c3ccc(Cl)cc3)NC(=S)N2)c(Cl)cc1Cl
OVCAR-3 ovarian
  TGI: > 100 µM
NCI-H460 lung
  TGI: > 100 µM
UACC-62 melanoma
  TGI: > 100 µM
SNB-19 CNS
  TGI: > 100 µM
LOX IMVI melanoma
  TGI: > 100 µM
MOLT-4 leukemia
  TGI: > 100 µM
NCI-H23 lung
  TGI: > 100 µM
HS 578T breast
  TGI: > 100 µM
NCI-H226 lung
  TGI: > 100 µM

## O=C(O)C1C(C(=O)O)C2C(=O)C=CC1N2Cc1ccccc1 (stereo not given)
OVCAR-3 ovarian
  TGI: 10.1 µM
NCI-H460 lung
  TGI: 5.1 µM
UACC-62 melanoma
  TGI: 21.3 µM
SNB-19 CNS
  TGI: 18.2 µM
LOX IMVI melanoma
  TGI: 19.1 µM
MOLT-4 leukemia
  TGI: 9.18 µM
NCI-H23 lung
  TGI: 7.71 µM
HS 578T breast
  TGI: 6.1 µM
NCI-H226 lung
  TGI: 35.8 µM

## c1ccc(Nc2nnc(CSc3nc(-c4ccccc4)c(-c4ccccc4)[nH]3)s2)cc1
OVCAR-3 ovarian
  TGI: 26.7 µM
NCI-H460 lung
  TGI: 36.3 µM
LOX IMVI melanoma
  TGI: 31.8 µM
MOLT-4 leukemia
  TGI: 29.8 µM
NCI-H23 lung
  TGI: 45.1 µM
NCI-H226 lung
  TGI: 33 µM
KM20L2 colon
  TGI: 48.5 µM

## CCOC(=O)NC(C(F)(F)F)(C(F)(F)F)P(=O)(OC(C)C)OC(C)C
OVCAR-3 ovarian
  TGI: > 100 µM
NCI-H460 lung
  TGI: > 100 µM
UACC-62 melanoma
  TGI: > 100 µM
SNB-19 CNS
  TGI: > 100 µM
LOX IMVI melanoma
  TGI: > 100 µM
MOLT-4 leukemia
  TGI: > 100 µM
NCI-H23 lung
  TGI: > 100 µM
HS 578T breast
  TGI: > 100 µM
NCI-H226 lung
  TGI: > 100 µM

## CCOC(=O)c1ccc(C(=O)OCC)n1-c1cc2cc(c1)CSCc1cc(cc(-n3c(C(=O)OCC)ccc3C(=O)OCC)c1)CSC2
OVCAR-3 ovarian
  TGI: > 10 µM
NCI-H460 lung
  TGI: > 10 µM
UACC-62 melanoma
  TGI: > 10 µM
SNB-19 CNS
  TGI: > 10 µM
LOX IMVI melanoma
  TGI: > 10 µM
MOLT-4 leukemia
  TGI: > 10 µM
NCI-H23 lung
  TGI: > 10 µM
HS 578T breast
  TGI: > 10 µM
NCI-H226 lung
  TGI: > 10 µM

## COc1cc(Br)c(OC)c2c(OC)cc(C)cc12
OVCAR-3 ovarian
  TGI: > 100 µM
NCI-H460 lung
  TGI: > 100 µM
UACC-62 melanoma
  TGI: > 100 µM
SNB-19 CNS
  TGI: > 100 µM
LOX IMVI melanoma
  TGI: > 100 µM
MOLT-4 leukemia
  TGI: > 100 µM
NCI-H23 lung
  TGI: > 100 µM
HS 578T breast
  TGI: > 100 µM
NCI-H226 lung
  TGI: > 100 µM

## COc1cc2c(/C=C3/C(=O)Nc4ccc(Cl)cc43)c(Cl)n(Cc3ccccc3)c2cc1C
OVCAR-3 ovarian
  TGI: 4.83 µM
NCI-H460 lung
  TGI: > 100 µM
UACC-62 melanoma
  TGI: 10.3 µM
SNB-19 CNS
  TGI: 8.98 µM
LOX IMVI melanoma
  TGI: > 100 µM
MOLT-4 leukemia
  TGI: 5.02 µM
NCI-H23 lung
  TGI: 7.46 µM
HS 578T breast
  TGI: > 100 µM
NCI-H226 lung
  TGI: 9.61 µM

## CSc1nc2ccccc2c(=O)n1/N=C1\C(=O)N(CN2CCCCC2)c2ccc(Cl)cc21
OVCAR-3 ovarian
  TGI: > 100 µM
NCI-H460 lung
  TGI: > 100 µM
UACC-62 melanoma
  TGI: > 100 µM
SNB-19 CNS
  TGI: > 100 µM
LOX IMVI melanoma
  TGI: 28.8 µM
MOLT-4 leukemia
  TGI: 39.9 µM
NCI-H23 lung
  TGI: > 100 µM
HS 578T breast
  TGI: > 100 µM
NCI-H226 lung
  TGI: > 100 µM

## CCCCCCn1c(SCC)c2ccccc2c1-c1nc(F)nc(F)n1
OVCAR-3 ovarian
  TGI: > 100 µM
NCI-H460 lung
  TGI: > 100 µM
SNB-19 CNS
  TGI: > 100 µM
LOX IMVI melanoma
  TGI: > 100 µM
MOLT-4 leukemia
  TGI: > 100 µM
NCI-H23 lung
  TGI: > 100 µM
NCI-H226 lung
  TGI: > 100 µM
KM20L2 colon
  TGI: > 100 µM

## O=C(O)C1CC2C3CCC2C1C3=O (stereo not given)
OVCAR-3 ovarian
  TGI: > 100 µM
NCI-H460 lung
  TGI: > 100 µM
UACC-62 melanoma
  TGI: > 100 µM
SNB-19 CNS
  TGI: > 100 µM
LOX IMVI melanoma
  TGI: > 100 µM
MOLT-4 leukemia
  TGI: > 100 µM
NCI-H23 lung
  TGI: > 100 µM
HS 578T breast
  TGI: > 100 µM
NCI-H226 lung
  TGI: > 100 µM

From PubChem BioAssay (NCI)
